Consider 10 compounds from PubChem BioAssay AID1794805 (Yongcheng Song lab at Baylor College of Medicine, 2022).

Structures are written as SMILES. Calls of active or inactive are those of the source.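 The calls were made as follows: active = EC50 under 50 µM in a live-cell viability test; inactive = the rest.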 Bounds are passed on as bounds.

The experiment relates to HL60 proliferation, XTT absorbance. The experiment can be described thus: antiproliferative activity against HL60 AML cells – cell-based, XTT absorbance, dose response (AID 1794805).
Take `NC(=O)c1ccc(-c2ccc3cc(C(=O)NCC4CCNCC4)sc3c2)cc1`: the EC50 was > 51 µM (inactive).
`O=C(NCC1CCNCC1)c1c[nH]c2cc(-c3ccc(N4CCCCC4)cc3)ccc12`: the concentration giving a half-maximal response (EC50) was 50 µM.
Take `O=C(NCC1CCNCC1)c1cc2ccc(-c3ccc(N4CCCCC4)cc3)cc2s1`: the EC50 was 10 µM.
With `O=C(NCC1CCNCC1)c1cc2cc(-c3ccc(N4CCCCC4)cc3)ccc2[nH]1`, the EC50 is 50 µM.
As to `O=C(NCC1CCNCC1)c1c[nH]c2cc(-c3ccc(N4CCCC4)cc3)ccc12`, the 50% effective concentration (EC50) was 50 µM.
For `O=C(NCC1CCNCC1)c1cc2ccc(-c3ccc(N4CCCC4)cc3)cc2s1` the value was 26 µM.
`O=C(NCC1CCNCC1)c1coc2cc(-c3ccc(N4CCCCC4)cc3)ccc12`: the EC50 was 9.7 µM.
`O=C(NCC1CCNCC1)c1cc2cc(-c3ccc(N4CCCCC4)cc3)ccc2s1`: the EC50 is 9 µM.
For the compound `NCc1ccc(-c2ccc3cc(C(=O)NCC4CCNCC4)oc3c2)cc1`, the EC50 is > 51 µM (inactive).
In the case of `O=C(NCC1CCNCC1)c1cc2cc(-c3cn[nH]c3)ccc2[nH]1`, the EC50 is > 51 µM (inactive).

The EC50 is the concentration at which the effect is half-maximal.
